Source: ChEMBL document CHEMBL1201862, “PubChem BioAssay data set” (2004)
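Tested at 5 concentrations; 48 h exposure; 96-well plates; endpoints linearly interpolated, else capped at highest concentration. At the GI50, growth is halved.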 Calls of active or inactive are those of the source. Rule as the data show it: active = GI50 up to about 1.1 µM and inactive = higher.

Tests used:
Test in all cases: NCI tumour cell line growth inhibition, 48 h
786-0 = tested on: 786-0
BT-549 = tested on: BT-549
CAKI-1 = tested on: CAKI-1
HCT-116 = tested on: HCT-116
HCT-15 = tested on: HCT-15
Hs-578T = tested on: Hs-578T
IGROV-1 = tested on: IGROV-1
MDA-MB-435 = tested on: MDA-MB-435
Malme-3M = tested on: Malme-3M
NCI-H226 = tested on: NCI-H226
NCI-H460 = tested on: NCI-H460
OVCAR-8 = tested on: OVCAR-8
PC-3 = tested on: PC-3
RXF 393 = tested on: RXF 393
SF-268 = tested on: SF-268
SF-539 = tested on: SF-539
SK-MEL-2 = tested on: SK-MEL-2
SW-620 = tested on: SW-620
T47D = tested on: T47D
TK-10 = tested on: TK-10

Row | SMILES | GI50 (786-0) | GI50 (BT-549) | GI50 (CAKI-1) | GI50 (HCT-116) | GI50 (HCT-15) [µM] | GI50 (Hs-578T) | GI50 (IGROV-1) | GI50 (MDA-MB-435) | GI50 (Malme-3M) | GI50 (NCI-H226) | GI50 (NCI-H460) | GI50 (OVCAR-8) | GI50 (PC-3) | GI50 (RXF 393) | GI50 (SF-268) | GI50 (SF-539) | GI50 (SK-MEL-2) | GI50 (SW-620) | GI50 (T47D) | GI50 (TK-10)
1 | C[n+]1c(Cl)cn2c3nc4ccccc4nc3c([O-])c(C#N)c21 | > 100 µM (inactive) | > 100 µM (inactive) | > 100 µM (inactive) | > 100 µM (inactive) | > 10 | > 100 µM (inactive) | > 100 µM (inactive) | > 100 µM (inactive) | > 100 µM (inactive) | > 100 µM (inactive) | 9.48 µM (inactive) | > 100 µM (inactive) | > 100 µM (inactive) | > 100 µM (inactive) | > 81.3 µM (inactive) | 9.31 µM (inactive) | > 4.65 µM (inactive) | > 100 µM (inactive) | 41.7 µM (inactive) | > 10 µM (inactive)
2 | O=c1[nH]c2ccc(Cl)cc2c2oc(-c3ccccc3)nc12 | 16 µM (inactive) | > 100 µM (inactive) | 21.6 µM (inactive) | 16.4 µM (inactive) | 51.6 | 15.7 µM (inactive) | 29.1 µM (inactive) | 51.6 µM (inactive) | 29.3 µM (inactive) | 21.2 µM (inactive) | 20 µM (inactive) | 5.62 µM (inactive) | 29.9 µM (inactive) | 14.1 µM (inactive) | 36 µM (inactive) | 29.3 µM (inactive) | 17.8 µM (inactive) | 44.6 µM (inactive) | 19.2 µM (inactive) | 35.5 µM (inactive)
3 | CCOC(=O)N/N=C/C1=NN(C(=O)OCC)[S+]([O-])C1C (stereo not given) | > 100 µM (inactive) | > 100 µM (inactive) | > 100 µM (inactive) | > 100 µM (inactive) | > 100 | > 100 µM (inactive) | > 100 µM (inactive) | > 100 µM (inactive) | > 100 µM (inactive) | > 100 µM (inactive) | 96.8 µM (inactive) | > 100 µM (inactive) | > 100 µM (inactive) | > 100 µM (inactive) | > 100 µM (inactive) | > 100 µM (inactive) | > 100 µM (inactive) | > 100 µM (inactive) | > 100 µM (inactive) | > 100 µM (inactive)
4 | CC(C)=CCCC(C)C1=C(O)C(=O)C(C)=CC1=O (stereo not given) | 5.86 µM (inactive) | 14.6 µM (inactive) | 5.89 µM (inactive) | 4.71 µM (inactive) | 2.23 | 25.1 µM (inactive) | 15.6 µM (inactive) | 16.7 µM (inactive) | 9.29 µM (inactive) | 20.8 µM (inactive) | 27.7 µM (inactive) | 18.1 µM (inactive) | 17.4 µM (inactive) | 4.74 µM (inactive) | 20.2 µM (inactive) | 19.6 µM (inactive) | 17.7 µM (inactive) | 5.94 µM (inactive) | 2.07 µM (inactive) | 7.73 µM (inactive)
5 | N=C(N)NCCCC(=O)O | > 100 µM (inactive) | > 100 µM (inactive) | > 100 µM (inactive) | > 100 µM (inactive) | > 100 | > 100 µM (inactive) | > 100 µM (inactive) | > 100 µM (inactive) | > 100 µM (inactive) | > 100 µM (inactive) | > 100 µM (inactive) | > 100 µM (inactive) | > 100 µM (inactive) | > 100 µM (inactive) | > 100 µM (inactive) | > 100 µM (inactive) | > 100 µM (inactive) | > 100 µM (inactive) | > 100 µM (inactive) | > 100 µM (inactive)
